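Growth conditions: 96-well plates. Treatment: test compound, 48 hours, 5 concentrations. Analysis: linear interpolation between bracketing concentrations; unreached endpoints set to highest concentration. At the GI50, growth is halved.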 Calls of active or inactive are those of the source. Cut-off read from the data, not from the text of the source: active = GI50 up to about 1.1 µM and inactive = higher.
Legend:
Test in all cases: NCI tumour cell line growth inhibition, 48 h
M14 = system: M14
SNB-75 = system: SNB-75
ACHN = system: ACHN
K562 = system: K562
RPMI-8226 = system: RPMI-8226
HCT-116 = system: HCT-116
NCI-H23 = system: NCI-H23
SK-MEL-5 = system: SK-MEL-5
NCI-H226 = system: NCI-H226
UACC-257 = system: UACC-257
UACC-62 = system: UACC-62
A498 = system: A498
SF-268 = system: SF-268
EKVX = system: EKVX
Malme-3M = system: Malme-3M
OVCAR-3 = system: OVCAR-3
PC-3 = system: PC-3
A549 = system: A549
IGROV-1 = system: IGROV-1
NCI/ADR-RES = system: NCI/ADR-RES

Structure (SMILES)	GI50 (M14)	GI50 (SNB-75)	GI50 (ACHN)	GI50 (K562)	GI50 (RPMI-8226)	GI50 (HCT-116)	GI50 (NCI-H23)	GI50 (SK-MEL-5)	GI50 (NCI-H226)	GI50 (UACC-257)	GI50 (UACC-62)	GI50 (A498)	GI50 (SF-268)	GI50 (EKVX)	GI50 (Malme-3M)	GI50 (OVCAR-3)	GI50 (PC-3)	GI50 (A549)	GI50 (IGROV-1)	GI50 (NCI/ADR-RES)
CCn1cc2c(=O)n3ncn(-c4ccc(Br)cc4)c3nc2n1	> 100 µM (inactive)	21 µM (inactive)	> 100 µM (inactive)	> 100 µM (inactive)	40.3 µM (inactive)	> 100 µM (inactive)	> 100 µM (inactive)	> 100 µM (inactive)	> 100 µM (inactive)	> 100 µM (inactive)	> 100 µM (inactive)	> 100 µM (inactive)	> 100 µM (inactive)	> 100 µM (inactive)	> 100 µM (inactive)	> 100 µM (inactive)	> 100 µM (inactive)	> 100 µM (inactive)	29.6 µM (inactive)	> 100 µM (inactive)
COc1cc2ncnc(Nc3cccc(Br)c3)c2cc1OC	3.79 µM (inactive)	3.05 µM (inactive)	0.06 µM (active)	15.9 µM (inactive)	34.1 µM (inactive)	14.4 µM (inactive)	12.5 µM (inactive)	2.18 µM (inactive)	3.25 µM (inactive)	7.5 µM (inactive)	3.85 µM (inactive)	3.12 µM (inactive)	3.81 µM (inactive)	0.316 µM (active)	7.36 µM (inactive)	5.14 µM (inactive)	3.77 µM (inactive)	7.6 µM (inactive)	2.02 µM (inactive)	2.46 µM (inactive)
Brc1ccc2nc(-c3cccs3)nc(N3CCN(c4ccccc4)CC3)c2c1	> 100 µM (inactive)	> 100 µM (inactive)	> 100 µM (inactive)	> 100 µM (inactive)	> 100 µM (inactive)	> 100 µM (inactive)	> 100 µM (inactive)	> 100 µM (inactive)	> 100 µM (inactive)	> 100 µM (inactive)	> 100 µM (inactive)	> 100 µM (inactive)	> 100 µM (inactive)	> 100 µM (inactive)	> 100 µM (inactive)	> 100 µM (inactive)	> 100 µM (inactive)	> 100 µM (inactive)	> 100 µM (inactive)	> 100 µM (inactive)
CN(C)CCNc1ccc2nnn3c4ccc(Cl)cc4c(=O)c1c23	4.94 µM (inactive)	3.01 µM (inactive)	1.55 µM (inactive)	2.14 µM (inactive)	2.92 µM (inactive)	1.48 µM (inactive)	5.09 µM (inactive)	2.94 µM (inactive)	2.06 µM (inactive)	5.19 µM (inactive)	4.89 µM (inactive)	2.8 µM (inactive)	3.4 µM (inactive)	4.45 µM (inactive)	4.89 µM (inactive)	5.6 µM (inactive)	2.76 µM (inactive)	2.72 µM (inactive)	3.65 µM (inactive)	1.04 µM (active)
O=c1cc(/C=C/c2ccc(O)c(O)c2)cc(/C=C/c2ccc(O)c(O)c2)o1	10.5 µM (inactive)	10.5 µM (inactive)	5.85 µM (inactive)	2.9 µM (inactive)	5.02 µM (inactive)	8.17 µM (inactive)	14.9 µM (inactive)	8.59 µM (inactive)	14.9 µM (inactive)	12.5 µM (inactive)	8.39 µM (inactive)	11 µM (inactive)	5.86 µM (inactive)	8.11 µM (inactive)	5.82 µM (inactive)	7.71 µM (inactive)	9.16 µM (inactive)	12.8 µM (inactive)	12.9 µM (inactive)	32.9 µM (inactive)
Nc1nc(N)c(CCCCc2ccccc2)c(N)n1	> 100 µM (inactive)	60.7 µM (inactive)	> 100 µM (inactive)	> 100 µM (inactive)	> 100 µM (inactive)	> 100 µM (inactive)	> 100 µM (inactive)	> 100 µM (inactive)	> 100 µM (inactive)	> 100 µM (inactive)	> 100 µM (inactive)	> 100 µM (inactive)	> 100 µM (inactive)	> 42.8 µM (inactive)	> 100 µM (inactive)	> 100 µM (inactive)	> 100 µM (inactive)	> 100 µM (inactive)	> 100 µM (inactive)	> 100 µM (inactive)
O=c1[nH]nc(Cc2ccc(Cl)cc2)n1/N=C\CC/C=N\n1c(Cc2ccc(Cl)cc2)n[nH]c1=O	32.8 µM (inactive)	7.96 µM (inactive)	56 µM (inactive)	> 88.7 µM (inactive)	> 33.3 µM (inactive)	27.2 µM (inactive)	32.3 µM (inactive)	47.3 µM (inactive)	18.4 µM (inactive)	50.9 µM (inactive)	10.9 µM (inactive)	> 69.5 µM (inactive)	13.5 µM (inactive)	21.3 µM (inactive)	24.3 µM (inactive)	> 100 µM (inactive)	> 51.9 µM (inactive)	> 100 µM (inactive)	9.93 µM (inactive)	22.2 µM (inactive)

— ChEMBL document CHEMBL1201862, “PubChem BioAssay data set” (2004)
